Measured values: patent publication US7112603B2, “Prodrugs of 3-(pyrrol-2-ylmethylidene)-2-indolinone derivatives” (Agouron Pharmaceuticals, Inc., priority 2000, dated 2006)

Tests used:
[1] = Plasma Stability Test (IV dosing of prodrug, HPLC analysis of blood plasma); format: in vivo; conditions: dogs, IV at 2 mg/mL, HPLC analysis of blood plasma for 4 hours following dosing
Protocol: The prodrug (3Z)-3-[(3,5-dimethyl-1H-pyrrol-2-yl)-methylidene]-1-(1-pyrrolidinylmethyl)-1,3-dihydro-2H-indol-2-one was administered IV at 2 mg/mL to dogs. Levels of both prodrug and drug (3(Z)-3-[(3,5-dimethyl-1H-pyrrol-2-yl)-methylidene]-1,3-dihydro-2H-indol-2-one) were followed by HPLC analysis of blood plasma for 4 hours following dosing.

| Structure (SMILES) | melting point | half-life for conversion of the prodrug to drug [1] | prodrug converted into drug (from area under the curve of drug concentration vs. time) [1] |
| --- | --- | --- | --- |
| Cc1cc(C)c(/C=C2\C(=O)N(CO)c3ccccc32)[nH]1 | 200 to 202 °C | – | – |
| CC(=O)OC(C)N1C(=O)/C(=C\c2[nH]c(C)cc2C)c2ccccc21 (stereo not drawn) | 107 to 110 °C | – | – |
| Cc1cc(C)c(/C=C2\C(=O)N(C(=O)CNC(=O)OCc3ccccc3)c3ccccc32)[nH]1 | 193 to 196 °C | – | – |
| Cc1cc(C)c(/C=C2\C(=O)N(COC(=O)CCC(=O)O)c3ccccc32)[nH]1 | 160 to 162 °C | – | – |
| Cc1cc(C)c(/C=C2\C(=O)N(CN3CCCC3)c3ccccc32)[nH]1 [Example 14, (3Z)-3-[(3,5-dimethyl-1H-pyrrol-2-yl)-methylidene]-1-(1-pyrrolidinylmethyl)-1,3-dihydro-2H-indol-2-one] | – | 7.3 min | 80% |
